Data published in US4548946A, “Antiinflammatory and/or analgesic 1,8-Dihydro-(or 3,8-dihydro)-8-aryl-2-[(substituted)thio]-indeno[1,2-d]imidazoles and their corresponding sulfoxides and sulfones” (E. I. Du Pont de Nemours and Company, priority 1982, dated 1985).
Like-named read-outs stand apart in the source and are kept apart here.

Key:
[1] = system: writhing induced by phenylquinone; test: Phenylquinone writhing test (analgesic activity); assay type: in vivo, female white mice; conditions: read-out: Phenylquinone Writhing ED50
Method: PHENYLQUINONE WRITHING TEST
A test compound suspended in 1% methylcellulose was given orally to fasted (17-21 hours) female white mice, 5-20 animals per double blind test. Aqueous (0.01% phenyl-p-benzoquinone)phenylquinone, 0.20 ml per mouse, was injected intraperitoneally 6 minutes before observations were begun.

[2] = system: adjuvant-induced arthritis; test: Established adjuvant-induced arthritis in rats (paw volume); assay type: in vivo, Charles River Lewis male rats; conditions: for ED50: read-out: Adjuvant Arthritic ED50; for Paw volume reduction at indicated daily dose (Adjuvant Arthritic): oral, daily dose 9 (mg/kg), 7 days, printed in the ED50 column, footnote 1
[3] = mouse, oral, fasted 17-21 hours, effective analgesic dose for 50% of the mice
[4] = rat, oral gavage daily for 7 days, ED50% decrease from control paw volume, uninjected left hind paw, one day after last dose

SMILES | ED50 [1, 3] | ED50 [2, 4] | Paw volume reduction at indicated daily dose (Adjuvant Arthritic) ([2]; rat) | ED50 ([1]; Mus musculus, po) | ED50 ([2]; Rattus norvegicus, po)
FC(F)(F)Sc1nc2c([nH]1)C(c1ccccc1)c1ccccc1-2 (stereo not drawn) [Example 3, 1,8-Dihydro(or 3,8-dihydro)-2-[(trifluoromethyl)thio]-8-phenyl-indeno[1,2-d]imidazole] | 0.26 mg/kg | 1.1 mg/kg |  |  | 
Cc1ccc2c(c1)-c1nc(SC(F)(F)C(F)F)[nH]c1C2c1ccccc1 (stereo not drawn) [Example 15] | 5 mg/kg | 3.6 mg/kg |  |  | 
FC(F)(F)Sc1nc2c([nH]1)C(c1ccc(Cl)c(Cl)c1)c1ccccc1-2 (stereo not drawn) [Example 10] | 1.3 mg/kg |  | 44% |  | 
Cc1ccc2c(c1)-c1nc(S(=O)(=O)C(F)(F)C(F)F)[nH]c1C2c1ccccc1 (stereo not drawn) [Example 16] | 0.064 mg/kg |  | 39% |  | 
COc1cccc2c1-c1nc(SC(F)(F)F)[nH]c1C2c1ccccc1 (stereo not drawn) [Example 9] | 8.3 mg/kg | > 9 mg/kg |  |  | 
CCCCC1C(=O)N(c2ccccc2)N(c2ccccc2)C1=O [Phenylbutazone, phenylbutazone, reference compound] | 80 mg/kg | 10 mg/kg |  |  | 
CS(=O)(=O)c1nc2c([nH]1)C(c1ccccc1)c1ccccc1-2 (stereo not drawn) [Example 7, 1,8-Dihydro(or 3,8-dihydro)-2-(methylsulfonyl)-8-phenyl-indeno[1,2]-dimidazole] | 14 mg/kg | 19 mg/kg |  |  | 
O=S(=O)(c1nc2c([nH]1)C(c1ccccc1)c1ccccc1-2)C(F)(F)F (stereo not drawn) [Example 4, 1,8-Dihydro(or 3,8-dihydro)-2-[(trifluoromethyl)sulfonyl]-8-phenyl-indeno[1,2-d]imidazole] | 0.04 mg/kg | 1.35 mg/kg |  |  | 
FC(F)C(F)(F)Sc1nc2c([nH]1)C(c1ccccc1)c1ccccc1-2 (stereo not drawn) [Example 1, 1,8-Dihydro(or 3,8-dihydro)-2-[(1,1,2,2-tetrafluoroethyl)thio]-8-phenyl-indeno[1,2-d]imidazole] | 0.16 mg/kg | 0.79 mg/kg |  |  | 
CCSc1nc2c([nH]1)C(c1ccccc1)c1ccccc1-2 (stereo not drawn) [Example 11] | 14 mg/kg | 14 mg/kg |  |  | 
COc1ccc2c(c1)C(c1ccccc1)c1[nH]c(SC(F)(F)F)nc1-2 (stereo not drawn) [Example 8] | 2.4 mg/kg | 10.5 mg/kg |  |  | 
COc1ccc(C2c3ccccc3-c3nc(SC(F)(F)F)[nH]c32)cc1 (stereo not drawn) [Example 13] | 0.147 mg/kg | 3.2 mg/kg |  |  | 
CCCCSc1nc2c([nH]1)C(c1ccccc1)c1ccccc1-2 (stereo not drawn) [Example 12] | 65 mg/kg | > 27 mg/kg |  |  | 
CSc1nc2c([nH]1)C(c1ccccc1)c1ccccc1-2 (stereo not drawn) [Example 6, 1,8-Dihydro(or 3,8-dihydro)-2-(methylthio)-8-phenyl-indeno[1,2-d]imidazole] | 27 mg/kg | 50 mg/kg |  |  | 
CC(C)Cc1ccc(C(C)C(=O)O)cc1 (stereo not drawn) [Ibuprofen, reference compound] | 10 mg/kg | 100 mg/kg |  |  | 
Fc1ccc(C2c3ccccc3-c3nc(SC(F)(F)F)[nH]c32)cc1 (stereo not drawn) [Example 17] | 0.14 mg/kg | 2.4 mg/kg |  |  | 
CC(=O)Oc1ccccc1C(=O)O [Aspirin, reference compound] |  |  |  | 135 mg/kg | 305 mg/kg
O=S(=O)(c1nc2c([nH]1)C(c1ccccc1)c1ccccc1-2)C(F)(F)C(F)F (stereo not drawn) [Example 2, 1,8-Dihydro(or 3,8-dihydro)-2-[(1,1,2,2-tetrafluoroethyl)sulfonyl]-8-phenyl-indeno[1,2-d]imidazole] | 0.04 mg/kg | 0.2 mg/kg |  |  | 
[O-][S+](c1nc2c([nH]1)C(c1ccccc1)c1ccccc1-2)C(F)(F)F (stereo not drawn) [Example 5, 1,8-Dihydro(or 3,8-dihydro)-2-[(trifluoromethyl)sulfinyl]-8-phenyl-indeno[1,2-d]imidazole] | 0.057 mg/kg | 0.62 mg/kg |  |  | 
COc1ccc2c(c1)c(CC(=O)O)c(C)n2C(=O)c1ccc(Cl)cc1 [Indomethacin, reference compound] |  |  |  | 0.35 mg/kg | 0.3 mg/kg
COc1ccc(C2c3ccccc3-c3nc(S(=O)(=O)C(F)(F)F)[nH]c32)cc1 (stereo not drawn) [Example 14] | 0.2 mg/kg | 0.5 mg/kg |  |  | 
